# Measurements: article PMC4598813 (Scientific Reports, 2015)
# Legend:
# [1] = system: total PrP in ScN2a cells; format: cell-based, mouse
# [2] = system: L2-2B1 cells; conditions: mouse
# [3] = system: PrP^Sc in ScN2a cells; format: cell-based, mouse
# [4] = system: PrP^Sc formation; conditions: cited from earlier work
# [5] = system: ScN2a cells; conditions: mouse
compound,measurement,setting,value
CCN(CC)CCCC(C)Nc1c2ccc(Cl)cc2nc2ccc(OC)cc12 (centres unmarked) [Quinacrine],total PrP level,[1],unaffected
same,concentration causing cytotoxicity,[2],above 2 μM
same,PrP^Sc level,[3],completely inhibited
same,optimal concentration found to inhibit PrP^Sc formation,[4],below 4 μM
same,concentration causing cytotoxicity,[5],above 2 μM
